Experimental findings from ChEMBL document CHEMBL5113387, “An insight into the multifunctional role of ghrelin and structure activity relationship studies of ghrelin receptor ligands with clinical trials” (Eur J Med Chem, 2022) are described below.

pEC50, pKi: −log10 of the molar value. Peptide text beside a SMILES is read from it.

Data set [1] in a line: Stimulation of growth hormone secretion in rat pituitary cells. Format: functional, cell-based. Conditions: Pituitary gland cell.
For data set [2], the target named is T1, Growth hormone secretagogue receptor type 1 (Homo sapiens, UniProt Q92847). Kind of data set: Binding affinity to GHS-R1a (unknown origin) assessed as inhibition constant.
A short description of data set [3]: Stimulation of growth hormone secretion in Wistar rat pituitary cells measured after 15 mins. The format is functional, cell-based. The following applies: Pituitary gland cell, 0.25 h.
A short description of data set [4]: Oral bioavailability in human. Format: ADME, organism-based. The following applies: in vivo.
Data set [5] has as its target T1, Growth hormone secretagogue receptor type 1. Kind of data set: Binding affinity to GHS-R1a (unknown origin). The following applies: filed as agonist.

T1 sequence (Q92847 whole entry): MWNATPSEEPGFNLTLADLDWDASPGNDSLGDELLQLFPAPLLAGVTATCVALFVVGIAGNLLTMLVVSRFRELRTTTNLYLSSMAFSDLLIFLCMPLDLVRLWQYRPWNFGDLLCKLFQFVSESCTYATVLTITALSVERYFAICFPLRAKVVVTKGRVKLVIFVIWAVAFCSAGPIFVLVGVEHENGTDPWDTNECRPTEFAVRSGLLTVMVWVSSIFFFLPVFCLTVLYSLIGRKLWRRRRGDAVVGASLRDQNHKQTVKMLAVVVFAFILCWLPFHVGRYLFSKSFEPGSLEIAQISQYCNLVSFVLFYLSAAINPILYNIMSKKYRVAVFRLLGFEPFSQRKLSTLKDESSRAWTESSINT

As a reminder, the pEC50 is the negative decadic logarithm of the EC50, by convention in mol/L. A high value points to a low EC50. In data set [1], `C[C@H](O)CNC(C)(C)CC(=O)N[C@@H]1CCc2ccccc2N(Cc2ccc(-c3ccccc3-c3nn[nH]n3)cc2)C1=O` gave a pEC50 of 8.52.

`CC(C)(N)CC(=O)N[C@@H]1CCc2ccccc2N(Cc2ccc(-c3ccccc3-c3nn[nH]n3)cc2)C1=O` showed a negative logarithm of the EC50 (pEC50) in data set [1] of 7.22. Against the preceding molecule, the pEC50 is 1.30 log units lower.

Usually pKi stands for −log10 of the Ki, conventionally taken in molar units. Consider `CN1CCC(S(=O)(=O)N[C@@H](COCc2ccccc2)C(=O)N2CCC3(CC2)CN(S(C)(=O)=O)c2ccccc23)CC1`, for which the pKi in data set [2] is greater than 7.00.

For the molecule `C[C@H](NC(=O)[C@H](Cc1c[nH]c2ccccc12)NC(=O)[C@@H](N)Cc1c[nH]cn1)C(=O)N[C@@H](Cc1c[nH]c2ccccc12)C(=O)N[C@@H](Cc1ccccc1)C(=O)N[C@@H](CCCCN)C(N)=O` (H-HWAWFK-NH2), the pEC50 in data set [1] was 8.00.

Regarding `CN1N=C2CCN(C(=O)[C@@H](COCc3ccccc3)NC(=O)C(C)(C)N)C[C@@]2(Cc2ccccc2)C1=O` [CAPROMORELIN], the pEC50 in data set [3] is 8.52.

For orientation: bioavailability means the share of a dose that reaches the circulation, judged against a reference dose that is usually intravenous. A low value points to little systemic uptake. Regarding `Cc1[nH]c2ccccc2c1C[C@@H](NC(=O)[C@@H](N)Cc1cnc[nH]1)C(=O)N[C@@H](C)C(=O)N[C@@H](Cc1c[nH]c2ccccc12)C(=O)N[C@H](Cc1ccccc1)C(=O)N[C@@H](CCCCN)C(N)=O` [EXAMORELIN] (HELM PEPTIDE1{H.[Cc1[nH]c2ccccc2c1C[C@@H](N[*:1])C(=O)[*:2]].A.W.[dF].K.[am]}$$$$V2.0), the bioavailability in data set [4] is less than 1%.

In turn, `CC(C)(N)C(=O)N[C@H](COCc1ccccc1)C(=O)N1CCC2(CC1)CN(S(C)(=O)=O)c1ccccc12` [IBUTAMOREN] showed a pEC50 in data set [1] of 8.89. The molecule further yielded an Activity in data set [5] of 0.3 nM.
